# Results as given in patent publication US8435978B2, “Substituted sulfonamide compounds” (Gruenenthal GmbH, priority 2006, dated 2013).
# Counter-ions that a name gives are not always drawn.
# What was measured:
# B1R receptor of the rat = biological target: T1, B1R receptor of the rat (Rattus norvegicus, UniProt P97583); experiment: Functional study on the bradykinin receptor 1 (B1R), FLIPR Ca2+ assay, rB1R cells; format: cell-based; conditions: agonist Des-Arg9-bradykinin 100 nM, % inhibition compared with the maximum achievable inhibition; for inhibition at 10 µM: CHO-K1, test substance 10 μM, read-out: B1R Antagonism, rat [10 μM] % Inhibition
# T1 construct: host or cells: CHO K1 cells (Chinese hamster ovary), stably transfected
# T1 sequence (P97583 1-337): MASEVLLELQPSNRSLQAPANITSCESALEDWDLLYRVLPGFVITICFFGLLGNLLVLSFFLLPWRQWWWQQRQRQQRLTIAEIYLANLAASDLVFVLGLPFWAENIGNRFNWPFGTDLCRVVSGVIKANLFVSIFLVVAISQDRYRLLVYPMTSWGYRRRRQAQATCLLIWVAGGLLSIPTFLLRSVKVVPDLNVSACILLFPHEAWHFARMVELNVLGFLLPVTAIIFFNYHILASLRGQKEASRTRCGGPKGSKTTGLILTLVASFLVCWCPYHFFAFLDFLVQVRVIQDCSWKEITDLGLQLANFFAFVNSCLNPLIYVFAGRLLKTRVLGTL
# In short: (§1)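 Readout: peak Fluo-4 Ca2+ fluorescence, FLIPR. Stable CHO K1 hB1R or rB1R cells; cpd 10 μM, 10 min preincubation, then agonist (hB1R: Lys-Des-Arg9-BK 0.5 nM; rB1R: Des-Arg9-BK 100 nM). Value = % inhibition relative to maximal achievable inhibition.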
# human B1R receptor = biological target: T2, human B1R receptor (Homo sapiens, UniProt P46663); experiment: Functional study on the bradykinin receptor 1 (B1R), FLIPR Ca2+ assay, hB1R cells; format: cell-based; conditions: agonist Lys-Des-Arg9-bradykinin 0.5 nM, % inhibition compared with the maximum achievable inhibition; for inhibition at 10 µM: CHO-K1, test substance 10 μM, read-out: B1R Antagonism, human [10 μM] % Inhibition
# T2 construct: host or cells: CHO K1 cells (Chinese hamster ovary), stably transfected
# T2 sequence (P46663 1-353): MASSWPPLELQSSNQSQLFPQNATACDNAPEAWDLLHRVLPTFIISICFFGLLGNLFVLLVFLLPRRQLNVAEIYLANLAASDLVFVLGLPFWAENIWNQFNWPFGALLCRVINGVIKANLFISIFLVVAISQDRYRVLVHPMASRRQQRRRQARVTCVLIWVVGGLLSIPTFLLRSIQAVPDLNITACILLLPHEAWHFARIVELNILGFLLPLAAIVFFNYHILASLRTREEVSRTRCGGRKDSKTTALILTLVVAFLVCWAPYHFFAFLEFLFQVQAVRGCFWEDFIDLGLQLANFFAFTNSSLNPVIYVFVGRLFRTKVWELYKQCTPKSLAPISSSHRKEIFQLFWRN
# In short: as §1
SMILES,inhibition at 10 µM (B1R receptor of the rat) [%],inhibition at 10 µM (human B1R receptor) [%],"B1R Antagonism, rat [10 μM] % Inhibition (B1R receptor of the rat; test substance 10 μM, rB1R CHO K1 cells) [%]","B1R Antagonism, human [10 μM] % Inhibition (human B1R receptor; test substance 10 μM, hB1R CHO K1 cells) [%]"
"CN1CCC(N2CCN(C(=O)COC[C@@H]3Cc4ccccc4CN3S(=O)(=O)c3ccc(Cl)cc3Cl)CC2)CC1 [Example 133, (S)-2-((2-(2,4-dichlorophenylsulfonyl)-1,2,3,4-tetrahydroisoquinolin-3-yl)methoxy)-1-(4-(1-methylpiperidin-4-yl)piperazin-1-yl)ethanone]",98.1,103,,
"COc1cc(C)c(S(=O)(=O)N2CCCCC2COCC(=O)N2CCN(C3CCC(C(F)(F)F)CC3)CC2)c(C)c1 (centres unmarked) [Example 134, 2-((1-(4-methoxy-2,6-dimethylphenylsulfonyl)piperidin-2-yl)methoxy)-1-(4-(4-(trifluoromethyl)cyclohexyl)piperazin-1-yl)ethanone]",98.2,102,,
"COc1cc(C)c(S(=O)(=O)N2CC[C@H]2COCC(=O)N2CCN(C3CCN(C)CC3)CC2)c(C)c1 [Example 135, (S)-2-((1-(4-methoxy-2,6-dimethylphenylsulfonyl)azetidin-2-yl)methoxy)-1-(4-(1-methylpiperidin-4-yl)piperazin-1-yl)ethanone]",98.3,103,,
"COc1cc(C)c(S(=O)(=O)N2CCCCC2COCC(=O)N2CCC(NCC(c3cccnc3)N3CCOCC3)CC2)c(C)c1 (centres unmarked) [Example 136, 2-((1-(4-methoxy-2,6-dimethylphenylsulfonyl)piperidin-2-yl)methoxy)-1-(4-(2-morpholin-2-(pyridin-3-yl)ethylamino)piperidin-1-yl)ethanone]",,,98.94,103.97
"CN1CCC(N2CCN(C(=O)COCC3CCCCN3S(=O)(=O)c3csc4ccccc34)CC2)CC1 (centres unmarked) [Example 137, 2-((1-(benzo[b]thiophen-3-ylsulfonyl)piperidin-2-yl)methoxy)-1-(4-(1-methylpiperidin-4-yl)piperazin-1-yl)ethanone]",98.8,102,,
"CN1CCC(N2CCN(C(=O)COCC3CCCCN3S(=O)(=O)c3ccc(C(F)(F)F)cc3Cl)CC2)CC1 (centres unmarked) [Example 138, 2-((1-(2-chloro-4-(trifluoromethyl)phenylsulfonyl)piperidin-2-yl)methoxy)-1-(4-(1-methylpiperidin-4-yl)piperazin-1-yl)ethanone]",98.5,104,,
"CN1CCC(N2CCN(C(=O)COCC3CCCCN3S(=O)(=O)c3ccccc3Cl)CC2)CC1 (centres unmarked) [Example 139, 2-((1-(2-chlorophenylsulfonyl)piperidin-2-yl)methoxy)-1-(4-(1-methylpiperidin-4-yl)piperazin-1-yl)ethanone dihydrochloride]",98.8,99.9,,
"COc1cc(C)c(S(=O)(=O)N2CCC[C@@H]2COCC(=O)N2CCN(C3CCN(C)CC3)CC2)c(C)c1C [Example 140, (R)-2-((1-(4-methoxy-2,3,6-trimethylphenylsulfonyl)pyrrolidin-2-yl)methoxy)-1-(4-(1-methylpiperidin-4-yl)piperazin-1-yl)ethanone dihydrochloride]",80.7,100,,
"CN1CCC(N2CCN(C(=O)COCC3CCCCN3S(=O)(=O)c3c(Cl)cccc3Cl)CC2)CC1 (centres unmarked) [Example 141, 2-((1-(2,6-dichlorophenylsulfonyl)piperidin-2-yl)methoxy)-1-(4-(1-methylpiperidin-4-yl)piperazin-1-yl)ethanone dihydrochloride]",101,101,,

# The next lines start with the values.
inhibition at 10 µM (B1R receptor of the rat) [%],inhibition at 10 µM (human B1R receptor) [%],"B1R Antagonism, rat [10 μM] % Inhibition (B1R receptor of the rat; test substance 10 μM, rB1R CHO K1 cells) [%]","B1R Antagonism, human [10 μM] % Inhibition (human B1R receptor; test substance 10 μM, hB1R CHO K1 cells) [%]",SMILES
63,89.9,,,"COc1ccc(S(=O)(=O)N2Cc3ccccc3C[C@H]2COCC(=O)N2CCN(C3CCN(C)CC3)CC2)cc1 [Example 142, (S)-2-((2-(4-methoxyphenylsulfonyl)-1,2,3,4-tetrahydroisoquinolin-3-yl)methoxy)-1-(4-(1-methylpiperidin-4-yl)piperazin-1-yl)ethanone]"
99.3,99.9,,,"COc1cc(C)c(S(=O)(=O)N2CCCCC2COCC(=O)NCCC2CCN(c3ccncc3)CC2)c(C)c1 (centres unmarked) [Example 143, 2-((1-(4-methoxy-2,6-dimethylphenylsulfonyl)piperidin-2-yl)methoxy)-N-(2-(1-(pyridin-4-yl)piperidin-4-yl)ethyl)acetamide]"
98.2,101,,,"COc1cc(C)c(S(=O)(=O)N2CCCCC2COCC(=O)N2CCC(N3CCn4ccnc4C3)CC2)c(C)c1 (centres unmarked) [Example 144, 1-(4-(5,6-dihydroimidazo[1,2-a]pyrazin-7(8H)-yl)piperidin-1-yl)-2-((1-(4-methoxy-2,6-dimethylphenylsulfonyl)piperidin-2-yl)methoxy)ethanone]"
98.6,99.4,,,"COc1cc(C)c(S(=O)(=O)N2CCCCC2COCC(=O)N2CCC(N3CCn4ncnc4C3)CC2)c(C)c1 (centres unmarked) [Example 145, 1-(4-(5,6-dihydro-[1,2,4]triazolo[1,5-a]pyrazin-7(8H)-yl)piperidin-1-yl)-2-((1-(4-methoxy-2,6-dimethylphenylsulfonyl)piperidin-2-yl)methoxy)ethanone]"
99.6,97.3,,,"COc1cc(C)c(S(=O)(=O)N2CCCCC2COCC(=O)N2CCC(C(=O)N3CCN(C)CC3)CC2)c(C)c1 (centres unmarked) [Example 146, 2-((1-(4-methoxy-2,6-dimethylphenylsulfonyl)piperidin-2-yl)methoxy)-1-(4-(4-methylpiperazin-1-carbonyl)piperidin-1-yl)ethanone]"
100,100,,,"COc1cc(C)c(S(=O)(=O)N2CCCCC2COCC(=O)N2CCN(c3ccncc3)CC2)c(C)c1 (centres unmarked) [Example 147, 2-((1-(4-methoxy-2,6-dimethylphenylsulfonyl)piperidin-2-yl)methoxy)-1-(4-(pyridin-4-yl)piperazin-1-yl)ethanone]"
100,100,,,"Cc1cc(Br)cc(C)c1S(=O)(=O)N1CCCCC1COCC(=O)N1CCN(C2CCN(C)CC2)CC1 (centres unmarked) [Example 148, 2-((1-(4-bromo-2,6-dimethylphenylsulfonyl)piperidin-2-yl)methoxy)-1-(4-(1-methylpiperidin-4-yl)piperazin-1-yl)ethanone]"
100,99.4,,,"Cc1cc(Br)cc(C)c1S(=O)(=O)N1CCCCC1COCC(=O)N1CCC(CCN2CCCC2)CC1 (centres unmarked) [Example 149, 2-((1-(4-bromo-2,6-dimethylphenylsulfonyl)piperidin-2-yl)methoxy)-1-(4-(2-(pyrrolidin-1-yl)ethyl)piperidin-1-yl)ethanone]"
99.1,98.3,,,"Cc1cc(Br)cc(C)c1S(=O)(=O)N1CCCCC1COCC(=O)N1CCN(c2ccncc2)CC1 (centres unmarked) [Example 150, 2-((1-(4-bromo-2,6-dimethylphenylsulfonyl)piperidin-2-yl)methoxy)-1-(4-(pyridin-4-yl)piperazin-1-yl)ethanone]"
103,107,,,"Cc1c(S(=O)(=O)N2CCCCC2COCC(=O)N2CCN(C3CCN(C)CC3)CC2)sc2ccc(Cl)cc12 (centres unmarked) [Example 151, 2-((1-(5-chloro-3-methylbenzo[b]thiophen-2-ylsulfonyl)piperidin-2-yl)methoxy)-1-(4-(1-methylpiperidin-4-yl)piperazin-1-yl)ethanone dihydrochloride]"
